Measurements published in patent US12065442B2, “Tropomyosin receptor kinase (TRK) degradation compounds and methods of use” (Cullgen (Shanghai), Inc., priority 2018, dated 2024).
“Also recorded” adds a separate entry of the source.

Tested on: KM12 cells
Assay: Cell viability assay (CellTiter-Glo) in KM12 cells
Type: cell-based
Details: 500 nM, 12-point 2-fold serial dilution, 3 days (FIG. 4A)

| Compound | viability of KM12 cells |
| --- | --- |
| O=C1CCC(N2C(=O)c3cccc(NCCOCCOCCOCCC(=O)N4CCN(c5cccc(-c6cnc7ccc(N8CCC[C@@H]8c8cccc(F)c8)nn67)n5)CC4)c3C2=O)C(=O)N1 (stereo partly drawn) [CPD-010, 2-(2,6-Dioxopiperidin-3-yl)-4-((2-(2-(2-(3-(4-(6-(6-((R)-2-(3-fluorophenyl)pyrrolidin-1-yl)imidazo[1,2-b]pyridazin-3-yl)pyridin-2-yl)piperazin-1-yl)-3-oxopropoxy)ethoxy)ethoxy)ethyl)amino)isoindoline-1,3-dione] | inhibited the viability; also recorded: dose-dependently suppressed viability |

Same assay, conditions: Homo sapiens, 72 h; Table 2; KM12 cell viability, CellTiter-Glo, 3 days; read-out: IC50

| Compound | IC50 |
| --- | --- |
| Cc1ncsc1-c1ccc(CNC(=O)[C@@H]2C[C@@H](O)CN2C(=O)[C@@H](NC(=O)CCOCCOCCOCCOCCC(=O)N2CCN(c3cccc(-c4cnc5ccc(N6CCC[C@@H]6c6cccc(F)c6)nn45)n3)CC2)C(C)(C)C)cc1 [CPD-019, (2S,4R)-1-((S)-2-(tert-butyl)-19-(4-(6-(6-((R)-2-(3-Fluorophenyl)pyrrolidin-1-yl)imidazo[1,2-b]pyridazin-3-yl)pyridin-2-yl)piperazin-1-yl)-4,19-dioxo-7,10,13,16-tetraoxa-3-azanonadecanoyl)-4-hydroxy-N-(4-(4-methylthiazol-5-yl)benzyl)pyrrolidine-2-carboxamide] | 500 nM |
| Cc1ncsc1-c1ccc(CNC(=O)[C@@H]2C[C@@H](O)CN2C(=O)[C@@H](NC(=O)COCCOCC(=O)N2CCN(c3ccc(C(=O)Nc4n[nH]c5ccc(Cc6cc(F)cc(F)c6)cc45)c(NC4CCOCC4)c3)CC2)C(C)(C)C)cc1 [CPD-042, (2S,4R)-1-((S)-2-(2-(2-(2-(4-(4-((5-(3,5-Difluorobenzyl)-1H-indazol-3-yl)carbamoyl)-3-((tetrahydro-2H-pyran-4-yl)amino)phenyl)piperazin-1-yl)-2-oxoethoxy)ethoxy)acetamido)-3,3-dimethylbutanoyl)-4-hydroxy-N-(4-(4-methylthiazol-5-yl)benzyl)pyrrolidine-2-carboxamide] | > 1000 nM |
| O=C1CCC(N2C(=O)c3cccc(NCCOCCOCCOCCC(=O)N4CCN(c5cccc(-c6cnc7ccc(N8CCC[C@@H]8c8cccc(F)c8)nn67)n5)CC4)c3C2=O)C(=O)N1 (stereo partly drawn) [CPD-010, 2-(2,6-Dioxopiperidin-3-yl)-4-((2-(2-(2-(3-(4-(6-(6-((R)-2-(3-fluorophenyl)pyrrolidin-1-yl)imidazo[1,2-b]pyridazin-3-yl)pyridin-2-yl)piperazin-1-yl)-3-oxopropoxy)ethoxy)ethoxy)ethyl)amino)isoindoline-1,3-dione] | 30 nM |
| Cc1ncsc1-c1ccc(CNC(=O)[C@@H]2C[C@@H](O)CN2C(=O)[C@@H](NC(=O)CCC(=O)N2CCN(c3cccc(-c4cnc5ccc(N6CCC[C@@H]6c6cccc(F)c6)nn45)n3)CC2)C(C)(C)C)cc1 [CPD-006, (2S,4R)-1-((S)-2-(4-(4-(6-(6-((R)-2-(3-Fluorophenyl)pyrrolidin-1-yl)imidazo[1,2-b]pyridazin-3-yl)pyridin-2-yl)piperazin-1-yl)-4-oxobutanamido)-3,3-dimethylbutanoyl)-4-hydroxy-N-(4-(4-methylthiazol-5-yl)benzyl)pyrrolidine-2-carboxamide] | 500 nM |
| Cc1ncsc1-c1ccc(CNC(=O)[C@@H]2C[C@@H](O)CN2C(=O)[C@@H](NC(=O)CCOCCC(=O)N2CCN(c3ccc(C(=O)Nc4n[nH]c5ccc(Cc6cc(F)cc(F)c6)cc45)c(NC4CCOCC4)c3)CC2)C(C)(C)C)cc1 [CPD-048, (2S,4R)-1-((S)-2-(3-(3-(4-(4-((5-(3,5-Difluorobenzyl)-1H-indazol-3-yl)carbamoyl)-3-((tetrahydro-2H-pyran-4-yl)amino)phenyl)piperazin-1-yl)-3-oxopropoxy)propanamido)-3,3-dimethylbutanoyl)-4-hydroxy-N-(4-(4-methylthiazol-5-yl)benzyl)pyrrolidine-2-carboxamide] | > 1000 nM |

Same assay, conditions: Homo sapiens, 72 h; Table 3; KM12 cell viability, CellTiter-Glo, 3 days; read-out: IC50

| Compound | IC50 |
| --- | --- |
| O=C1CCC(N2Cc3ccc(OCCN4CCN(c5cccc(-c6cnc7ccc(N8CCC[C@@H]8c8cccc(F)c8)nn67)n5)CC4)cc3C2=O)C(=O)N1 (stereo partly drawn) [TR-201, 3-(6-(2-(4-(6-(6-((R)-2-(3-fluorophenyl)pyrrolidin-1-yl)imidazo[1,2-b]pyridazin-3-yl)pyridin-2-yl)piperazin-1-yl)ethoxy)-1-oxoisoindolin-2-yl)piperidine-2,6-dione] | > 500 nM |
| O=C1CCC(N2C(=O)c3ccc(NCCOCCOCCC(=O)N4CCN(c5ccc(C(=O)Nc6n[nH]c7ccc(Cc8cc(F)cc(F)c8)cc67)c(NC6CCOCC6)c5)CC4)cc3C2=O)C(=O)N1 (stereo not drawn) [TR-141, N-(5-(3,5-Difluorobenzyl)-1H-indazol-3-yl)-4-(4-(3-(2-(2-((2-(2,6-dioxopiperidin-3-yl)-1,3-dioxoisoindolin-5-yl)amino)ethoxy)ethoxy)propanoyl)piperazin-1-yl)-2-((tetrahydro-2H-pyran-4-yl)amino)benzamide] | 2.6 nM |
| O=C1CCC(N2C(=O)c3ccc(NCCCCCC(=O)N4CCN(c5ccc(C(=O)Nc6n[nH]c7ccc(Cc8cc(F)cc(F)c8)cc67)c(NC6CCOCC6)c5)CC4)cc3C2=O)C(=O)N1 (stereo not drawn) [TR-138, N-(5-(3,5-Difluorobenzyl)-1H-indazol-3-yl)-4-(4-(6-((2-(2,6-dioxopiperidin-3-yl)-1,3-dioxoisoindolin-5-yl)amino)hexanoyl)piperazin-1-yl)-2-((tetrahydro-2H-pyran-4-yl)amino)benzamide] | 31.1 nM |
| O=C1CCC(N2Cc3cc(C#CCN4CCN(c5cccc(-c6cnc7ccc(N8CCC[C@@H]8c8cccc(F)c8)nn67)n5)CC4)ccc3C2=O)C(=O)N1 (stereo partly drawn) [TR-188, 3-(5-(3-(4-(6-(6-((R)-2-(3-Fluorophenyl)pyrrolidin-1-yl)imidazo[1,2-b]pyridazin-3-yl)pyridin-2-yl)piperazin-1-yl)prop-1-yn-1-yl)-1-oxoisoindolin-2-yl)piperidine-2,6-dione] | 16.8 nM |
| O=C(CN1CCN(c2cccc(-c3cnc4ccc(N5CCC[C@@H]5c5cccc(F)c5)nn34)n2)CC1)NCCCCCCCCNc1ccc2c(c1)C(=O)N(C1CCC(=O)NC1=O)C2=O (stereo partly drawn) [TR-133, N-(8-((2-(2,6-dioxopiperidin-3-yl)-1,3-dioxoisoindolin-5-yl)amino)octyl)-2-(4-(6-(6-((R)-2-(3-fluorophenyl)pyrrolidin-1-yl)imidazo[1,2-b]pyridazin-3-yl)pyridin-2-yl)piperazin-1-yl)acetamide] | 22.8 nM |
| O=C1CCC(N2C(=O)c3ccc(CCN4CCN(c5cccc(-c6cnc7ccc(N8CCC[C@@H]8c8cccc(F)c8)nn67)n5)CC4)cc3C2=O)C(=O)N1 (stereo partly drawn) [TR-204, 2-(2,6-dioxopiperidin-3-yl)-5-(2-(4-(6-(6-((R)-2-(3-fluorophenyl)pyrrolidin-1-yl)imidazo[1,2-b]pyridazin-3-yl)pyridin-2-yl)piperazin-1-yl)ethyl)isoindoline-1,3-dione] | 10.6 nM |
| O=C1CCC(N2C(=O)c3ccc(CN4CCN(c5cccc(-c6cnc7ccc(N8CCC[C@@H]8c8cccc(F)c8)nn67)n5)CC4)cc3C2=O)C(=O)N1 (stereo partly drawn) [TR-197, 2-(2,6-Dioxopiperidin-3-yl)-5-((4-(6-(6-((R)-2-(3-fluorophenyl)pyrrolidin-1-yl)imidazo[1,2-b]pyridazin-3-yl)pyridin-2-yl)piperazin-1-yl)methyl)isoindoline-1,3-dione] | 67.1 nM |

Same assay, conditions: Homo sapiens, 72 h; Table 4; KM12 cell viability, CellTiter-Glo, 3 days; read-out: IC50

| Compound | IC50 |
| --- | --- |
| O=C1CCC(N2C(=O)c3ccc(N4CCC(CN5CCN(c6cccc(-c7cnc8ccc(N9CCC[C@@H]9c9cccc(F)c9)nn78)n6)CC5)C4)cc3C2=O)C(=O)N1 (stereo partly drawn) [TR-225, 2-(2,6-Dioxopiperidin-3-yl)-5-(3-((4-(6-(6-((R)-2-(3-fluorophenyl)pyrrolidin-1-yl)imidazo[1,2-b]pyridazin-3-yl)pyridin-2-yl)piperazin-1-yl)methyl)pyrrolidin-1-yl)isoindoline-1,3-dione] | 8.8 nM |
| O=C1CCC(N2C(=O)c3ccc(N4CC(CN5CCC(N6CCC=C(c7cnc8ccc(N9CCC[C@@H]9c9cccc(F)c9)nn78)C6)CC5)C4)cc3C2=O)C(=O)N1 (stereo partly drawn) [TR-230, 2-(2,6-Dioxopiperidin-3-yl)-5-(3-((4-(5-(6-((R)-2-(3-fluorophenyl)pyrrolidin-1-yl)imidazo[1,2-b]pyridazin-3-yl)-3,6-dihydropyridin-1(2H)-yl)piperidin-1-yl)methyl)azetidin-1-yl)isoindoline-1,3-dione] | > 500 nM |
